Data as given in US10980794B2, “PRMT5 inhibitors and uses thereof” (Epizyme, Inc., priority 2012, dated 2021).

What was measured:
[1] = test system: Z-138 cell line; test: Z-138 Proliferation Assay (Cell Titer Glo, 5 days); assay type: cell-based; details: Z-138 cells
From the text: RPMI/Glutamax medium, penicillin-streptomycin, heat inactivated fetal bovine serum were purchased from Life Technologies, Grand Island, N.Y., USA. V-bottom polypropylene 384-well plates were purchased from Greiner Bio-One, Monroe, N.C., USA. Cell culture 384-well white opaque plates were purchased from Perkin Elmer, Waltham, Mass., USA. Cell-Titer Glo® was purchased from Promega Corporation, Madison, Wis., USA. SpectraMax M5 plate reader was purchased from Molecular Devices LLC, Sunnyvale, Calif., USA.
A compound source plate was prepared by performing triplicate nine-point 3-fold serial dilutions in DMSO, beginning at 10 mM (final top concentration of compound in the assay was 20 μM and the DMSO was 0.2%). A 100 nL aliquot from the compound stock plate was added to its respective well in the cell plate. […] Luminescence was read in the SpectraMax M5 microplate reader. The concentration of compound inhibiting cell viability by 50% was determined using a 4-parametric fit of the normalized dose response curves.

[2] = test system: symmetric di-methyl arginine in Z-138 cells; test: Z-138 Methylation Assay (In Cell Western for symmetric di-methyl arginine and DNA content); assay type: cell-based; details: read-out: ICW EC50
From the text: [formula] [formula] Where top and bottom are the normally allowed to float, but may be fixed at 100 or 0 respectively in a 3-parameter fit. The Hill Coefficient normally allowed to float but may also be fixed at 1 in a 3-parameter fit. Y is the % inhibition and X is the compound concentration.
RPMI/Glutamax medium, penicillin-streptomycin, heat inactivated fetal bovine serum, and D-PBS were purchased from Life Technologies, Grand Island, N.Y., USA. Odyssey blocking buffer, 800 CW goat anti-rabbit IgG (H+L) antibody, and Licor Odyssey infrared scanner were purchased from Licor Biosciences, Lincoln, Nebr., USA. Symmetric di-methyl arginine antibody was purchased from EMD Millipore, Billerica, Mass., USA. 16% Paraformaldehyde was purchased from Electron Microscopy Sciences, Hatfield, Pa., USA. […]
First, the ratio for each well was determined by:
Each plate included fourteen control wells of DMSO only treatment (minimum inhibition) as well as fourteen control wells for maximum inhibition treated with 3 μM of a reference compound (Background wells). The average of the ratio values for each control type was calculated and used to determine the percent inhibition for each test well in the plate. […] Percent inhibition was determined and IC50 curves were generated using triplicate wells per concentration of compound.

CN(C[C@H](O)CN1CCc2ccccc2C1)C(=O)c1cc(NC2CCOCC2)ncn1 [Compound 232]
EC50 [1]: 1 to 10 µM | EC50 [2]: 101 to 1000 nM
